Data set [1] in a line: ABTS radical scavenging activity assessed as Trolox equivalent antioxidant capacity. The class given is physicochemical.
A further data set has as its system Liver microsomes. In words: Antioxidant activity in Wistar rat liver microsomes assessed as inhibition of lipid peroxidation by TBA assay. Format: functional, Microsome. In general terms: Microsomes from liver hold many membrane-bound enzymes, among them those of drug oxidation.

SMILES strings stand for the structures.

On to `Oc1cc(O)c2c(c1)O[C@H](c1ccc(O)c(O)c1)[C@H](O)C2` [(-)-EPICATECHIN], for which the Activity in data set [1] amounted to 0.99 mmol/L. Besides, in the data set on Liver microsomes, the IC50 (usually the concentration that inhibits the measured activity by half) was 25 µM. Consider `O=c1cc(-c2ccc(O)cc2)oc2cc(O)cc(O)c12` [APIGENIN], for which, in the data set with Liver microsomes, the IC50 was determined as 100 µM. Turning to `O=C(O)/C=C/c1ccc(O)c(O)c1` [CAFFEIC ACID], the Activity in data set [1] worked out at 1.01 mmol/L. For `Oc1cc(O)c2c(c1)OC(c1ccc(O)c(O)c1)C(O)C2` (stereo not drawn) [CATECHIN], the concentration for half-maximal inhibition (IC50) with Liver microsomes is 51 µM.

For the molecule `Oc1cc(O)c2c(c1)O[C@H](c1ccc(O)c(O)c1)[C@@H](O)C2` [CATECHIN], the Activity in data set [1] worked out at 0.57 mmol/L. With `COc1cc(/C=C/C(=O)O)ccc1O` [FERULATE], in data set [1], the Activity was determined as 0.23 mmol/L. Same read-out and setting: as for `O=C(O)c1cc(O)c(O)c(O)c1` [GALLIC ACID], the figure is 1.98 mmol/L.

In the case of `O=c1c(O)c(-c2ccc(O)cc2)oc2cc(O)cc(O)c12` [KAEMPFEROL], the Activity in data set [1] worked out at 0.79 mmol/L. In addition, the IC50 in the data set on Liver microsomes amounted to 19 µM.

Consider `O=c1c(O)c(-c2ccc(O)cc2O)oc2cc(O)cc(O)c12` [MORIN], for which the Activity in data set [1] is 0.83 mmol/L. Also, in the data set with Liver microsomes, the IC50 turned out to be 23 µM.

As to `O=c1c(O)c(-c2cc(O)c(O)c(O)c2)oc2cc(O)cc(O)c12` [MYRICETIN], the Activity in data set [1] is on record as 1.02 mmol/L. Moreover, the IC50 in the data set on Liver microsomes stood at 10.5 µM. Consider `O=C1C[C@@H](c2ccc(O)cc2)Oc2cc(O)cc(O)c21` [NARINGENIN], for which the IC50 in the data set on Liver microsomes came out at 100 µM. Take `O=c1c(O)c(-c2ccc(O)c(O)c2)oc2cc(O)cc(O)c12` [QUERCETIN]: the Activity in data set [1] came to 1.14 mmol/L. In the data set with Liver microsomes, the IC50 came to 8.5 µM. With `Oc1ccc(/C=C/c2cc(O)cc(O)c2)cc1` [RESVERATROL], the Activity in data set [1] was determined as 0.4 mmol/L.

For the origin of these results see ChEMBL document CHEMBL1152838, “QSAR study of antioxidant activity of wine polyphenols” (Eur J Med Chem, 2009).
